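96-well plates; 48 h exposure; 5 concentrations. Endpoints by linear interpolation between flanking doses. Not reached: highest tested concentration assigned. GI50 marks 50% less growth. TGI: concentration producing complete growth inhibition.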
Tests used:
Experiment in all cases: growth of human tumour cells (NCI), 48 h
[1] = system: SF-268 CNS
[2] = system: K-562 leukemia
[3] = system: NCI/ADR-RES ovarian
[4] = system: NCI-H522 lung
[5] = system: NCI-H226 lung
[6] = system: UACC-257 melanoma
[7] = system: ACHN renal
[8] = system: SNB-19 CNS
[9] = system: DU-145 prostate
[10] = system: HCT-15 colon
[11] = system: SF-295 CNS
[12] = system: NCI-H23 lung
[13] = system: CCRF-CEM leukemia
[14] = system: OVCAR-5 ovarian
[15] = system: HCT-116 colon
[16] = system: 786-0 renal
[17] = system: OVCAR-4 ovarian
[18] = system: NCI-H460 lung
[19] = system: HT29 colon
[20] = system: SK-OV-3 ovarian
[21] = system: TK-10 renal
[22] = system: PC-3 prostate
[23] = system: COLO 205 colon
[24] = system: SNB-75 CNS
[25] = system: U251 CNS
[26] = system: MDA-MB-435
[27] = system: MDA-MB-231 breast
[28] = system: HOP-92 NSCLC
[29] = system: HCC-2998 colon
[30] = system: SR leukemia
[31] = system: SN12C renal
[32] = system: T-47D breast
[33] = system: KM12 colon
[34] = system: OVCAR-8 ovarian
[35] = system: EKVX NSCLC
[36] = system: CAKI-1 renal
[37] = system: MALME-3M melanoma
[38] = system: MOLT-4 leukemia
[39] = system: SK-MEL-5 melanoma
[40] = system: HS 578T breast
[41] = system: SW-620 colon
[42] = system: SK-MEL-2 melanoma
[43] = system: OVCAR-3 ovarian
[44] = system: A549 NSCLC
[45] = system: IGROV1 ovarian
[46] = system: MCF7 breast
[47] = system: UACC-62 melanoma
[48] = system: LOX IMVI melanoma
[49] = system: HOP-62 NSCLC
[50] = system: M14 melanoma
[51] = system: RPMI-8226 leukemia
[52] = system: UO-31 renal
[53] = system: BT-549 breast
[54] = system: A498 renal
[55] = system: SK-MEL-28 melanoma
[56] = system: RXF 393 renal
[57] = system: SF-539 CNS

For `c1ccc(C2=Nc3ccccc3N3CNN=C23)cc1`, the GI50 [1] was greater than 100 µM, the TGI [1] was greater than 100 µM and the GI50 [2] was 90.1 µM. For the same compound, the TGI [2] was greater than 100 µM, the GI50 [3] was greater than 100 µM and the TGI [3] was greater than 100 µM. The GI50 [4] was greater than 100 µM, the TGI [4] was greater than 100 µM and the GI50 [5] was greater than 100 µM. It also gave a TGI [5] greater than 100 µM, a GI50 [6] greater than 100 µM and a TGI [6] greater than 100 µM. It also gave a GI50 [7] greater than 100 µM, a TGI [7] greater than 100 µM and a GI50 [8] greater than 100 µM. It also gave a TGI [8] greater than 100 µM, a GI50 [9] of 81.9 µM and a TGI [9] greater than 100 µM. For the same compound, the GI50 [10] was 90.6 µM, the TGI [10] was greater than 100 µM and the GI50 [11] was greater than 100 µM. The TGI [11] was greater than 100 µM, the GI50 [12] was greater than 100 µM and the TGI [12] was greater than 100 µM. It also gave a GI50 [13] greater than 100 µM, a TGI [13] greater than 100 µM and a GI50 [14] greater than 100 µM. It also gave a TGI [14] greater than 100 µM, a GI50 [15] greater than 100 µM and a TGI [15] greater than 100 µM. It also gave a GI50 [16] greater than 100 µM, a TGI [16] greater than 100 µM and a GI50 [17] greater than 100 µM. For the same compound, the TGI [17] was greater than 100 µM, the GI50 [18] was greater than 100 µM and the TGI [18] was greater than 100 µM. It also gave a GI50 [19] of 52.2 µM, a TGI [19] greater than 100 µM and a GI50 [20] greater than 100 µM. The TGI [20] was greater than 100 µM, the GI50 [21] was 79.4 µM and the TGI [21] was greater than 100 µM. It also gave a GI50 [22] greater than 100 µM, a TGI [22] greater than 100 µM and a GI50 [23] greater than 100 µM. For the same compound, the TGI [23] was greater than 100 µM, the GI50 [24] was 25.8 µM and the TGI [24] was 86.6 µM. The GI50 [25] was greater than 100 µM, the TGI [25] was greater than 100 µM and the GI50 [26] was greater than 100 µM. It also gave a TGI [26] greater than 100 µM, a GI50 [27] of 40.7 µM and a TGI [27] greater than 100 µM. It also gave a GI50 [28] of 15 µM, a TGI [28] of 51.5 µM and a GI50 [29] greater than 100 µM. It also gave a TGI [29] greater than 100 µM, a GI50 [30] of 25 µM and a TGI [30] greater than 100 µM. For the same compound, the GI50 [31] was greater than 100 µM, the TGI [31] was greater than 100 µM and the GI50 [32] was 74.8 µM. The TGI [32] was greater than 100 µM, the GI50 [33] was greater than 100 µM and the TGI [33] was greater than 100 µM. For the same compound, the GI50 [34] was greater than 100 µM, the TGI [34] was greater than 100 µM and the GI50 [35] was 47.9 µM. It also gave a TGI [35] greater than 100 µM, a GI50 [36] greater than 100 µM and a TGI [36] greater than 100 µM. It also gave a GI50 [37] greater than 100 µM, a TGI [37] greater than 100 µM and a GI50 [38] of 24.2 µM. It also gave a TGI [38] greater than 100 µM, a GI50 [39] of 63.6 µM and a TGI [39] greater than 100 µM. The GI50 [40] was 81.8 µM, the TGI [40] was greater than 100 µM and the GI50 [41] was greater than 100 µM. The TGI [41] was greater than 100 µM, the GI50 [42] was greater than 100 µM and the TGI [42] was greater than 100 µM. The GI50 [43] was 84.4 µM, the TGI [43] was greater than 100 µM and the GI50 [44] was greater than 100 µM. The TGI [44] was greater than 100 µM, the GI50 [45] was greater than 100 µM and the TGI [45] was greater than 100 µM. The GI50 [46] was greater than 100 µM, the TGI [46] was greater than 100 µM and the GI50 [47] was greater than 100 µM. For the same compound, the TGI [47] was greater than 100 µM, the GI50 [48] was greater than 100 µM and the TGI [48] was greater than 100 µM. For the same compound, the GI50 [49] was greater than 100 µM, the TGI [49] was greater than 100 µM and the GI50 [50] was greater than 100 µM. For the same compound, the TGI [50] was greater than 100 µM, the GI50 [51] was 31.6 µM and the TGI [51] was greater than 100 µM. For the same compound, the GI50 [52] was greater than 100 µM and the TGI [52] was greater than 100 µM.

Work on `Cc1ccc2c(-c3ccnc(Nc4cccc(C(F)(F)F)c4)n3)c(-c3ccccc3)nn2n1` yielded a GI50 [1] greater than 15.2 µM, a TGI [1] greater than 25 µM and a GI50 [2] greater than 25 µM. The TGI [2] was greater than 25 µM, the GI50 [3] was 8.47 µM and the TGI [3] was greater than 25 µM. For the same compound, the GI50 [4] was 5.73 µM, the TGI [4] was greater than 14.7 µM and the GI50 [5] was 6.01 µM. It also gave a TGI [5] of 17 µM, a GI50 [6] of 8.31 µM and a TGI [6] greater than 16.6 µM. The GI50 [7] was 1.97 µM, the TGI [7] was greater than 25 µM and the GI50 [8] was greater than 17.9 µM. For the same compound, the TGI [8] was greater than 25 µM, the GI50 [9] was 12.3 µM and the TGI [9] was 24.4 µM. For the same compound, the GI50 [10] was 5.34 µM, the TGI [10] was greater than 19 µM and the GI50 [11] was greater than 13.4 µM. The TGI [11] was greater than 25 µM, the GI50 [12] was 11.8 µM and the TGI [12] was greater than 25 µM. The GI50 [53] was 15 µM, the TGI [53] was greater than 24 µM and the GI50 [13] was 7.77 µM. It also gave a TGI [13] greater than 25 µM, a GI50 [14] of 10.2 µM and a TGI [14] of 24.6 µM. It also gave a GI50 [15] of 4.32 µM, a TGI [15] greater than 12.2 µM and a GI50 [16] of 4.67 µM. The TGI [16] was greater than 15.1 µM, the GI50 [17] was 12 µM and the TGI [17] was greater than 25 µM. The GI50 [54] was 5.72 µM, the TGI [54] was greater than 15.4 µM and the GI50 [18] was 6.42 µM. The TGI [18] was greater than 16.4 µM, the GI50 [19] was 2.28 µM and the TGI [19] was greater than 15.5 µM. It also gave a GI50 [20] of 0.597 µM, a TGI [20] greater than 15.8 µM and a GI50 [21] of 3.57 µM. The TGI [21] was 11.4 µM, the GI50 [22] was greater than 13 µM and the TGI [22] was greater than 25 µM. The GI50 [23] was 4.04 µM, the TGI [23] was greater than 25 µM and the GI50 [24] was 3.87 µM. It also gave a TGI [24] greater than 25 µM, a GI50 [25] of 10.3 µM and a TGI [25] greater than 25 µM. It also gave a GI50 [26] of 6.77 µM, a TGI [26] greater than 25 µM and a GI50 [27] of 3.34 µM. The TGI [27] was 8.64 µM, the GI50 [28] was greater than 25 µM and the TGI [28] was greater than 25 µM. The GI50 [29] was 5.99 µM, the TGI [29] was 16.1 µM and the GI50 [31] was 3.82 µM. It also gave a TGI [31] greater than 15.5 µM, a GI50 [32] of 6.95 µM and a TGI [32] greater than 23.7 µM. For the same compound, the GI50 [33] was 11.1 µM, the TGI [33] was greater than 18.3 µM and the GI50 [34] was 9.27 µM. It also gave a TGI [34] greater than 25 µM, a GI50 [55] greater than 15.4 µM and a TGI [55] greater than 25 µM. The GI50 [35] was 10.5 µM, the TGI [35] was greater than 25 µM and the GI50 [36] was 2.83 µM. For the same compound, the TGI [36] was greater than 25 µM, the GI50 [56] was 2.95 µM and the TGI [56] was 8.57 µM. For the same compound, the GI50 [37] was greater than 16.4 µM, the TGI [37] was greater than 22.8 µM and the GI50 [38] was greater than 25 µM. It also gave a TGI [38] greater than 25 µM, a GI50 [39] of 4.05 µM and a TGI [39] of 7.94 µM. It also gave a GI50 [40] of 7.13 µM, a TGI [40] greater than 25 µM and a GI50 [41] of 7.81 µM. It also gave a TGI [41] greater than 22.5 µM, a GI50 [42] of 6.28 µM and a TGI [42] of 14.3 µM. For the same compound, the GI50 [43] was 5.73 µM, the TGI [43] was greater than 18.8 µM and the GI50 [44] was 6.18 µM. For the same compound, the TGI [44] was greater than 25 µM, the GI50 [45] was 2.1 µM and the TGI [45] was 24.4 µM. The GI50 [46] was 2.85 µM, the TGI [46] was greater than 25 µM and the GI50 [47] was 6.38 µM. The TGI [47] was greater than 16.1 µM, the GI50 [57] was 6.56 µM and the TGI [57] was greater than 19.6 µM. For the same compound, the GI50 [48] was 4.92 µM, the TGI [48] was greater than 17.2 µM and the GI50 [49] was 14.4 µM. It also gave a TGI [49] greater than 25 µM, a GI50 [50] of 10.5 µM and a TGI [50] greater than 17.2 µM. The GI50 [51] was greater than 14.2 µM, the TGI [51] was greater than 25 µM and the GI50 [52] was 1.16 µM. It also gave a TGI [52] greater than 25 µM.

Source: PubChem BioAssay (NCI)
